In one test the test system is L1210. Kind of test: cells. The class given is cell-based, mouse. The conditions noted are these: Table 2. The procedure: (§1) A population of cells (>1×10^6 cells/mL as determined with a hemocytometer) was diluted with Dulbecco's Modified Eagle Medium (DMEM, Gibco) containing 10% fetal bovine serum (FBS, Gibco) to give a final concentration of 30,000 cells/mL. To each well of a 96-well plate (Corning® Costar®) was added 100 μL of the cell media solution with a multichannel pipet.
(§2) The test compounds were then added to the plate as follows: test compounds were diluted in DMSO to a concentration of 1 mM. 10-Fold serial dilutions in DMSO were next performed on a separate 96-well plate. Fresh culture media (100 μL) was added to each well of cells resulting in 200 μL of medium per well followed by 2 μL of each test agent. Compounds were tested in duplicate (n=2-8 times) at six concentrations between 0-1000 nM or 0-10000 nM. Following the addition of compound, cultures were incubated for an additional 72 hours.
(§3) The plates were incubated at 37° C. for 5 minutes (L1210) or 15 min (HCT116 and HCT116/VM46).

Another test concerns HCT116. Kind of test: cells. The class given is cell-based, human. Particulars: for IC50: Table 2, read-out: IC50 HCT116; for potency relative to vinblastine (more potent): vinblastine-sensitive cell lines. The procedure:
as §1, §2, §3

Each structure is given as a SMILES string.

A word on the IC50: it is the midpoint of a concentration-inhibition curve. Turning to `CCC1(NC(=O)c2ccc(C3CCCCC3)cc2)CC2CN(CCc3c([nH]c4ccccc34)C(C(=O)OC)(c3cc4c(cc3OC)N(C)C3C(O)(C(=O)OC)C(OC(C)=O)C5(CC)C=CCN6CCC43C65)C2)C1` (stereo not drawn) [Compound 43], the IC50 is 40 nM with L1210 and 30 nM in the test with HCT116.

With `CC[C@]1(NC(=O)c2ccc(F)cc2)C[C@H]2CN(CCc3c([nH]c4ccccc34)[C@@](C(=O)OC)(c3cc4c(cc3OC)N(C)[C@H]3[C@@](O)(C(=O)OC)[C@H](OC(C)=O)[C@]5(CC)C=CCN6CC[C@]43[C@@H]65)C2)C1` [Compound 44], the values for the IC50 in the test on L1210 and with HCT116 were 1.8 nM and 1.4 nM, respectively.

For `CC[C@]1(NC(=O)c2cccc(F)c2)C[C@H]2CN(CCc3c([nH]c4ccccc34)[C@@](C(=O)OC)(c3cc4c(cc3OC)N(C)[C@H]3[C@@](O)(C(=O)OC)[C@H](OC(C)=O)[C@]5(CC)C=CCN6CC[C@]43[C@@H]65)C2)C1` [Compound 45], the results for the IC50 in the test on L1210 and in the test on HCT116 were 5.7 nM and 5.3 nM, respectively.

For the molecule `CC[C@]1(NC(=O)c2ccccc2F)C[C@H]2CN(CCc3c([nH]c4ccccc34)[C@@](C(=O)OC)(c3cc4c(cc3OC)N(C)[C@H]3[C@@](O)(C(=O)OC)[C@H](OC(C)=O)[C@]5(CC)C=CCN6CC[C@]43[C@@H]65)C2)C1` [Compound 46], the figures for the IC50 in the test with L1210 and in the test with HCT116 were 8.4 nM and 7.7 nM, respectively.

`CC[C@]1(NC(=O)c2ccc(Cl)cc2)C[C@H]2CN(CCc3c([nH]c4ccccc34)[C@@](C(=O)OC)(c3cc4c(cc3OC)N(C)[C@H]3[C@@](O)(C(=O)OC)[C@H](OC(C)=O)[C@]5(CC)C=CCN6CC[C@]43[C@@H]65)C2)C1` [Compound 47]: the IC50 with L1210 came to 3.1 nM; in the test on HCT116, 3.2 nM.

`CC[C@]1(NC(=O)c2cccc(Cl)c2)C[C@H]2CN(CCc3c([nH]c4ccccc34)[C@@](C(=O)OC)(c3cc4c(cc3OC)N(C)[C@H]3[C@@](O)(C(=O)OC)[C@H](OC(C)=O)[C@]5(CC)C=CCN6CC[C@]43[C@@H]65)C2)C1` [Compound 48]: the half-maximal inhibitory concentration (IC50) with L1210 was 4.2 nM; in the test with HCT116, 2.7 nM.

For `CC[C@]1(NC(=O)c2ccccc2Cl)C[C@H]2CN(CCc3c([nH]c4ccccc34)[C@@](C(=O)OC)(c3cc4c(cc3OC)N(C)[C@H]3[C@@](O)(C(=O)OC)[C@H](OC(C)=O)[C@]5(CC)C=CCN6CC[C@]43[C@@H]65)C2)C1` [Compound 49], the values for the IC50 in the test on L1210 and in the test with HCT116 were 50 nM and 55 nM, respectively.

As for `CC[C@]1(NC(=O)c2ccc(Cl)c(Cl)c2)C[C@H]2CN(CCc3c([nH]c4ccccc34)[C@@](C(=O)OC)(c3cc4c(cc3OC)N(C)[C@H]3[C@@](O)(C(=O)OC)[C@H](OC(C)=O)[C@]5(CC)C=CCN6CC[C@]43[C@@H]65)C2)C1` [Compound 50], the results for the half-inhibitory concentration (IC50) with L1210 and in the test on HCT116 were 8.5 nM and 8.7 nM, respectively.

For the molecule `CC[C@]1(NC(=O)c2ccc(Br)cc2)C[C@H]2CN(CCc3c([nH]c4ccccc34)[C@@](C(=O)OC)(c3cc4c(cc3OC)N(C)[C@H]3[C@@](O)(C(=O)OC)[C@H](OC(C)=O)[C@]5(CC)C=CCN6CC[C@]43[C@@H]65)C2)C1` [Compound 51], the IC50 amounted to 2.7 nM with L1210 and 1.4 nM with HCT116.

As to `CC[C@]1(NC(=O)c2cccc(Br)c2)C[C@H]2CN(CCc3c([nH]c4ccccc34)[C@@](C(=O)OC)(c3cc4c(cc3OC)N(C)[C@H]3[C@@](O)(C(=O)OC)[C@H](OC(C)=O)[C@]5(CC)C=CCN6CC[C@]43[C@@H]65)C2)C1` [Compound 52], the IC50 is 5 nM in the test on L1210 and 6.3 nM in the test with HCT116.

Take `CCC1(NC(=O)c2ccc(Br)c(Br)c2)CC2CN(CCc3c([nH]c4ccccc34)C(C(=O)OC)(c3cc4c(cc3OC)N(C)C3C(O)(C(=O)OC)C(OC(C)=O)C5(CC)C=CCN6CCC43C65)C2)C1` (stereo not drawn) [Compound 53]: the IC50 stood at 60 nM in the test with L1210 and 40 nM in the test on HCT116.

For the molecule `CCC1(NC(=O)c2ccc(C#N)c(C)c2)CC2CN(CCc3c([nH]c4ccccc34)C(C(=O)OC)(c3cc4c(cc3OC)N(C)C3C(O)(C(=O)OC)C(OC(C)=O)C5(CC)C=CCN6CCC43C65)C2)C1` (stereo not drawn) [Compound 55], the IC50 with L1210 was determined as 4.8 nM; in the test on HCT116, 6.2 nM.

Take `CCC1(NC(=O)c2ccc([N+](=O)[O-])cc2)CC2CN(CCc3c([nH]c4ccccc34)C(C(=O)OC)(c3cc4c(cc3OC)N(C)C3C(O)(C(=O)OC)C(OC(C)=O)C5(CC)C=CCN6CCC43C65)C2)C1` (stereo not drawn) [Compound 56]: the IC50 with L1210 and with HCT116 was 6.1 nM throughout.

Turning to `CC[C@]1(NC(=O)c2ccc(N)cc2)C[C@H]2CN(CCc3c([nH]c4ccccc34)[C@@](C(=O)OC)(c3cc4c(cc3OC)N(C)[C@H]3[C@@](O)(C(=O)OC)[C@H](OC(C)=O)[C@]5(CC)C=CCN6CC[C@]43[C@@H]65)C2)C1` [Compound 57], the half-maximal inhibitory concentration (IC50) in the test on L1210 and in the test with HCT116 was 0.4 nM in each case.

In the case of `CCC1(NC(=O)c2ccc(NC(=O)OC)cc2)CC2CN(CCc3c([nH]c4ccccc34)C(C(=O)OC)(c3cc4c(cc3OC)N(C)C3C(O)(C(=O)OC)C(OC(C)=O)C5(CC)C=CCN6CCC43C65)C2)C1` (stereo not drawn) [Compound 59], the IC50 in the test with L1210 was determined as 1.5 nM; in the test with HCT116 it was 0.8 nM.

As for `CC[C@]1(NC(=O)c2ccc(NC)cc2)C[C@H]2CN(CCc3c([nH]c4ccccc34)[C@@](C(=O)OC)(c3cc4c(cc3OC)N(C)[C@H]3[C@@](O)(C(=O)OC)[C@H](OC(C)=O)[C@]5(CC)C=CCN6CC[C@]43[C@@H]65)C2)C1` [Compound 62], the IC50 in the test with L1210 was 0.38 nM; in the test on HCT116, 0.33 nM.

In the case of `CC[C@]1(NC(=O)c2ccc(N(C)C(=O)OC(C)(C)C)cc2)C[C@H]2CN(CCc3c([nH]c4ccccc34)[C@@](C(=O)OC)(c3cc4c(cc3OC)N(C)[C@H]3[C@@](O)(C(=O)OC)[C@H](OC(C)=O)[C@]5(CC)C=CCN6CC[C@]43[C@@H]65)C2)C1` [Compound 63], the IC50 was 4.1 nM in the test with L1210 and 3.9 nM in the test on HCT116.

As for `CCC1(NC(=O)c2ccc(CN)cc2)CC2CN(CCc3c([nH]c4ccccc34)C(C(=O)OC)(c3cc4c(cc3OC)N(C)C3C(O)(C(=O)OC)C(OC(C)=O)C5(CC)C=CCN6CCC43C65)C2)C1` (stereo not drawn) [Compound 65], the IC50 turned out to be 25 nM with L1210 and 3.5 nM with HCT116.

For `CC[C@]1(NC(=O)c2ccc(CNC(=O)OC(C)(C)C)cc2)C[C@H]2CN(CCc3c([nH]c4ccccc34)[C@@](C(=O)OC)(c3cc4c(cc3OC)N(C)[C@H]3[C@@](O)(C(=O)OC)[C@H](OC(C)=O)[C@]5(CC)C=CCN6CC[C@]43[C@@H]65)C2)C1` [Compound 66], the results for the IC50 with L1210 and in the test on HCT116 were 0.76 nM and 0.7 nM, respectively.

In the case of `CCC1(NC(=O)c2ccc(OC)cc2)CC2CN(CCc3c([nH]c4ccccc34)C(C(=O)OC)(c3cc4c(cc3OC)N(C)C3C(O)(C(=O)OC)C(OC(C)=O)C5(CC)C=CCN6CCC43C65)C2)C1` (stereo not drawn) [Compound 67], the values for the 50% inhibitory concentration (IC50) in the test on L1210 and in the test on HCT116 were 0.25 nM and 0.3 nM, respectively.

For the molecule `CCC1(NC(=O)c2cccc(OC)c2)CC2CN(CCc3c([nH]c4ccccc34)C(C(=O)OC)(c3cc4c(cc3OC)N(C)C3C(O)(C(=O)OC)C(OC(C)=O)C5(CC)C=CCN6CCC43C65)C2)C1` (stereo not drawn) [Compound 68], the concentration for half-maximal inhibition (IC50) in the test on L1210 is 0.6 nM; with HCT116, 0.8 nM.

For `CCC1(NC(=O)c2ccccc2OC)CC2CN(CCc3c([nH]c4ccccc34)C(C(=O)OC)(c3cc4c(cc3OC)N(C)C3C(O)(C(=O)OC)C(OC(C)=O)C5(CC)C=CCN6CCC43C65)C2)C1` (stereo not drawn) [Compound 69], the IC50 in the test with L1210 worked out at 30 nM; in the test with HCT116, 10 nM.

In the case of `CCC1(NC(=O)c2ccc(OC)c(OC)c2)CC2CN(CCc3c([nH]c4ccccc34)C(C(=O)OC)(c3cc4c(cc3OC)N(C)C3C(O)(C(=O)OC)C(OC(C)=O)C5(CC)C=CCN6CCC43C65)C2)C1` (stereo not drawn) [Compound 70], the results for the IC50 with L1210 and in the test on HCT116 were 0.06 nM and 0.07 nM, respectively.

Turning to `CC[C@]1(NC(=O)c2cc(OC)c(OC)c(OC)c2)C[C@H]2CN(CCc3c([nH]c4ccccc34)[C@@](C(=O)OC)(c3cc4c(cc3OC)N(C)[C@H]3[C@@](O)(C(=O)OC)[C@H](OC(C)=O)[C@]5(CC)C=CCN6CC[C@]43[C@@H]65)C2)C1` [Compound 71], the half-inhibitory concentration (IC50) in the test with L1210 was determined as 0.09 nM; with HCT116, 0.1 nM.

Take `CCOc1ccc(C(=O)NC2(CC)CC3CN(CCc4c([nH]c5ccccc45)C(C(=O)OC)(c4cc5c(cc4OC)N(C)C4C(O)(C(=O)OC)C(OC(C)=O)C6(CC)C=CCN7CCC54C76)C3)C2)cc1` (stereo not drawn) [Compound 72]: the IC50 in the test with L1210 and in the test on HCT116 was 0.6 nM throughout. Further, the “potency relative to vinblastine (more potent)” value with HCT116 was 10 fold.

For the molecule `CCOc1ccc(C(=O)NC2(CC)CC3CN(CCc4c([nH]c5ccccc45)C(C(=O)OC)(c4cc5c(cc4OC)N(C)C4C(O)(C(=O)OC)C(OC(C)=O)C6(CC)C=CCN7CCC54C76)C3)C2)cc1OCC` (stereo not drawn) [Compound 73], the results for the IC50 with L1210 and in the test with HCT116 were 0.4 nM and 0.5 nM, respectively.

As to `CCC1(NC(=O)c2ccc(OC(C)C)cc2)CC2CN(CCc3c([nH]c4ccccc34)C(C(=O)OC)(c3cc4c(cc3OC)N(C)C3C(O)(C(=O)OC)C(OC(C)=O)C5(CC)C=CCN6CCC43C65)C2)C1` (stereo not drawn) [Compound 74], the IC50 with L1210 came out at 0.7 nM; in the test with HCT116, 0.8 nM. Moreover, the “potency relative to vinblastine (more potent)” value with HCT116 was 10 fold.

Consider `CC[C@]1(NC(=O)c2ccc(OC(C)(C)C)cc2)C[C@H]2CN(CCc3c([nH]c4ccccc34)[C@@](C(=O)OC)(c3cc4c(cc3OC)N(C)[C@H]3[C@@](O)(C(=O)OC)[C@H](OC(C)=O)[C@]5(CC)C=CCN6CC[C@]43[C@@H]65)C2)C1` [Compound 75], for which the IC50 in the test with L1210 and in the test with HCT116 was 0.6 nM in each case.

As for `CCC1(NC(=O)c2ccc(Oc3ccccc3)cc2)CC2CN(CCc3c([nH]c4ccccc34)C(C(=O)OC)(c3cc4c(cc3OC)N(C)C3C(O)(C(=O)OC)C(OC(C)=O)C5(CC)C=CCN6CCC43C65)C2)C1` (stereo not drawn) [Compound 76], the values for the IC50 with L1210 and with HCT116 were 5.2 nM and 6.5 nM, respectively.
